Test results from ChEMBL document CHEMBL1268885, “Subtype-selective Na(v)1.8 sodium channel blockers: identification of potent, orally active nicotinamide derivatives” (Bioorg Med Chem Lett, 2010).
In brackets after ≈: the same amount, converted by molar mass.

Columns and labels:
[1] = molecular target: Sodium channel protein type 10 subunit alpha (Mus musculus, UniProt Q6QIY3); assay: Inhibition of mouse NaV1.8 by isotopic flux assay
Homo sapiens [2] = species: Homo sapiens; assay: Selectivity ratio of IC50 for human NAv1.2 to IC50 for human Nav1.8
Homo sapiens [3] = species: Homo sapiens; assay: Selectivity ratio of IC50 for human ERG to IC50 for human Nav1.8
[4] = molecular target: Sodium channel protein type 10 subunit alpha (Rattus norvegicus, UniProt Q62968); assay: Inhibition of tetrodotoxin-resistant NaV1.8 in rat DRG neuron by electrophysiology
[5] = molecular target: Sodium channel protein type 10 subunit alpha (Homo sapiens, UniProt Q9Y5Y9); assay: Inhibition of human NaV1.8 by electrophysiology
Sodium channel protein type 10 subunit alpha (Homo sapiens, UniProt Q9Y5Y9), sequence (Q9Y5Y9 whole entry): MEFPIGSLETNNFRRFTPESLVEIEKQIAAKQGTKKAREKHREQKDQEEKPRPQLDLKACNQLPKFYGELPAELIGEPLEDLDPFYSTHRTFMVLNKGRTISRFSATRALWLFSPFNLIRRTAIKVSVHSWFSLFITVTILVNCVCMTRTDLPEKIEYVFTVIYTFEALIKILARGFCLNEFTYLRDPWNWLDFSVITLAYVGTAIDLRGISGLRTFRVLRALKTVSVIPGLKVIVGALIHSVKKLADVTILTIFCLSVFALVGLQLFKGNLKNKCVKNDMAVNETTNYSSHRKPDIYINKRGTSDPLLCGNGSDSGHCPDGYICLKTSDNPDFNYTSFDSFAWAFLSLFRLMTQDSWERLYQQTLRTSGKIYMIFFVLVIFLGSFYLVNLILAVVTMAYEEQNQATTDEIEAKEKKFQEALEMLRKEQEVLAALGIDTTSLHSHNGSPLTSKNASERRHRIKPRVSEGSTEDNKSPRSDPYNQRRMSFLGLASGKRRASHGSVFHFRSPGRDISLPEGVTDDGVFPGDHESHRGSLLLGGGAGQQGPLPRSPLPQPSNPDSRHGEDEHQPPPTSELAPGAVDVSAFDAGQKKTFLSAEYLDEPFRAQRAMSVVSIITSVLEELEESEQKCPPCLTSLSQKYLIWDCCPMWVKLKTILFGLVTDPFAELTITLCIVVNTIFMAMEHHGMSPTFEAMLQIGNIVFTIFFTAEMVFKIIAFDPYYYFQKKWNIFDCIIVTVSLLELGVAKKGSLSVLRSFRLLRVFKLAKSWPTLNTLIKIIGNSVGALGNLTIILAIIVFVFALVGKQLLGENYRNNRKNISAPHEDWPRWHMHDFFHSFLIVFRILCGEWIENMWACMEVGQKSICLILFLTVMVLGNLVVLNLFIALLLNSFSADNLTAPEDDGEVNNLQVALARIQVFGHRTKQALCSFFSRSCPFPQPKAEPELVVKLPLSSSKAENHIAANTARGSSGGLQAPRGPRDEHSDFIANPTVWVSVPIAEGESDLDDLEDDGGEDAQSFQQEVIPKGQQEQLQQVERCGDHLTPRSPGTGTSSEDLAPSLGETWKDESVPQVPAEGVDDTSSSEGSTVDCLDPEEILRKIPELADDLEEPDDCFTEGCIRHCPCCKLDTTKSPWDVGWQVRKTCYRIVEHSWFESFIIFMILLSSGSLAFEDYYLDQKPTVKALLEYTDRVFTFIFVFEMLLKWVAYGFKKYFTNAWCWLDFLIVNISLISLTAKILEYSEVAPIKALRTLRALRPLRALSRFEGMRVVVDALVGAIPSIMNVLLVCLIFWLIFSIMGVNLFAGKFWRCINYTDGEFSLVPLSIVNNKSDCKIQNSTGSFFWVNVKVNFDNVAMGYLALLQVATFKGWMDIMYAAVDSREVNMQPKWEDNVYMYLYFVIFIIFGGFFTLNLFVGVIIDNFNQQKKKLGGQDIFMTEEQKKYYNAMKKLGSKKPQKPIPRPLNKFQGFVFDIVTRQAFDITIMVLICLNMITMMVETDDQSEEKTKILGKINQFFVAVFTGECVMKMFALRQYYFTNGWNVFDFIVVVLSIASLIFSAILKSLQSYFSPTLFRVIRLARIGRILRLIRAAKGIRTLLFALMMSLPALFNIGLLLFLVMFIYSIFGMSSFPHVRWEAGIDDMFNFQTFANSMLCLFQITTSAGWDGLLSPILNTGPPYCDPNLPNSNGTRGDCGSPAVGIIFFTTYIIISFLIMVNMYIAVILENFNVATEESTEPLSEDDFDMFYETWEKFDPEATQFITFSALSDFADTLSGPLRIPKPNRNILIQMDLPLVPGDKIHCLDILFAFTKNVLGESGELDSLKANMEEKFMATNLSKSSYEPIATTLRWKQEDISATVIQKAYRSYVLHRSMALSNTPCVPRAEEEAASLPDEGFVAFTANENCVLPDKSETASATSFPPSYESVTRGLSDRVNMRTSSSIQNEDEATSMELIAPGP

[6] = Oral bioavailability in rat at 3 mg/kg; format: ADME, organism-based; details: in vivo
[7] = Aqueous solubility of the compound; format: physicochemical; details: buffer
[8] = Intrinsic clearance in human microsomes; format: ADME, Microsome
[9] = Intrinsic clearance in rat microsomes after 1 hr; format: ADME, Microsome
[10] = molecular target: Sodium channel protein type 2 subunit alpha (Homo sapiens, UniProt Q99250); assay: Inhibition of human NaV1.2 by electrophysiology
[11] = molecular target: Transient receptor potential cation channel subfamily V member 1 (Homo sapiens, UniProt Q8NER1); assay: Inhibition of TRPV1
[12] = Inhibition of chloride channel at 10 uM
Plasma = assay: (§1) Plasma protein binding in rat; format: ADME, cell-free
Rattus norvegicus [13] = species: Rattus norvegicus; assay: Analgesic activity in rat Chung model of neuropathic pain; format: functional
[14] = Cmax in rat; format: ADME, organism-based; details: in vivo
[15] = Plasma clearance in rat; format: ADME, organism-based
[16] = Ratio of drug level in brain to plasma in rat; format: ADME, cell-free; details: read-out: BPR
[17] = molecular target: Voltage-gated potassium channel, KQT; KCNQ2(Kv7.2)/KCNQ3(Kv7.3) (Homo sapiens, UniProt O43525+O43526); assay: Inhibition of KCNQ2/Q3; format: protein-complex assay
[18] = molecular target: T1, P2X2/P2X3 heterotrimeric receptor (Homo sapiens, UniProt P56373+Q9UBL9); assay: Inhibition of P2X2/3 receptor; format: protein-complex assay
T1 sequence (Q9UBL9 whole entry): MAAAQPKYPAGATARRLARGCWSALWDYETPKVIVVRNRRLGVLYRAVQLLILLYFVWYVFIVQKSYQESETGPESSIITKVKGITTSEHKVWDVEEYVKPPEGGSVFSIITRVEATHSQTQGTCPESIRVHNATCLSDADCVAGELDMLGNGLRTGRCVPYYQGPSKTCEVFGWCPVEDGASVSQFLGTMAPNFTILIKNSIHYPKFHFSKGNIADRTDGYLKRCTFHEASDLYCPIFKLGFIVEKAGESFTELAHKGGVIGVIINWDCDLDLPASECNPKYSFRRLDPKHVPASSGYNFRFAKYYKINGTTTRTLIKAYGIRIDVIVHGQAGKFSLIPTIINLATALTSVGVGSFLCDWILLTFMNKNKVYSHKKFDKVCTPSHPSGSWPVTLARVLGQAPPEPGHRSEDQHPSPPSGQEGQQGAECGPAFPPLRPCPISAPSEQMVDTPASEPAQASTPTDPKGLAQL
T1 sequence (P56373 whole entry): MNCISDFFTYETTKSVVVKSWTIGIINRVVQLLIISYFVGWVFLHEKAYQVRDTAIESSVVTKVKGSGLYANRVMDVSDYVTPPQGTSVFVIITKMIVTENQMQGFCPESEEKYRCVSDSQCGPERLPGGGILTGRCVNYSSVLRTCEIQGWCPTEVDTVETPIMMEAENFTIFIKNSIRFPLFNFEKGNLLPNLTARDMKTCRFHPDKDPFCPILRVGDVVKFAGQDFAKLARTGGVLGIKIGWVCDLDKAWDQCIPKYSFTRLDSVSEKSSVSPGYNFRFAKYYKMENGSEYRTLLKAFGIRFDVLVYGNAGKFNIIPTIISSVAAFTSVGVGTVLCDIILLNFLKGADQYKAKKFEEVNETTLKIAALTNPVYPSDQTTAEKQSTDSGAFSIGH

Rattus norvegicus [19] = species: Rattus norvegicus; assay: Analgesic activity in rat Chung model of neuropathic pain assessed as decrease in von Frey filament-induced pain; format: functional
[20] = molecular target: Voltage-gated inwardly rectifying potassium channel KCNH2 (Homo sapiens, UniProt Q12809); assay: Inhibition of human ERG by Isotopic flux assay
Voltage-gated inwardly rectifying potassium channel KCNH2, sequence (Q12809 whole entry): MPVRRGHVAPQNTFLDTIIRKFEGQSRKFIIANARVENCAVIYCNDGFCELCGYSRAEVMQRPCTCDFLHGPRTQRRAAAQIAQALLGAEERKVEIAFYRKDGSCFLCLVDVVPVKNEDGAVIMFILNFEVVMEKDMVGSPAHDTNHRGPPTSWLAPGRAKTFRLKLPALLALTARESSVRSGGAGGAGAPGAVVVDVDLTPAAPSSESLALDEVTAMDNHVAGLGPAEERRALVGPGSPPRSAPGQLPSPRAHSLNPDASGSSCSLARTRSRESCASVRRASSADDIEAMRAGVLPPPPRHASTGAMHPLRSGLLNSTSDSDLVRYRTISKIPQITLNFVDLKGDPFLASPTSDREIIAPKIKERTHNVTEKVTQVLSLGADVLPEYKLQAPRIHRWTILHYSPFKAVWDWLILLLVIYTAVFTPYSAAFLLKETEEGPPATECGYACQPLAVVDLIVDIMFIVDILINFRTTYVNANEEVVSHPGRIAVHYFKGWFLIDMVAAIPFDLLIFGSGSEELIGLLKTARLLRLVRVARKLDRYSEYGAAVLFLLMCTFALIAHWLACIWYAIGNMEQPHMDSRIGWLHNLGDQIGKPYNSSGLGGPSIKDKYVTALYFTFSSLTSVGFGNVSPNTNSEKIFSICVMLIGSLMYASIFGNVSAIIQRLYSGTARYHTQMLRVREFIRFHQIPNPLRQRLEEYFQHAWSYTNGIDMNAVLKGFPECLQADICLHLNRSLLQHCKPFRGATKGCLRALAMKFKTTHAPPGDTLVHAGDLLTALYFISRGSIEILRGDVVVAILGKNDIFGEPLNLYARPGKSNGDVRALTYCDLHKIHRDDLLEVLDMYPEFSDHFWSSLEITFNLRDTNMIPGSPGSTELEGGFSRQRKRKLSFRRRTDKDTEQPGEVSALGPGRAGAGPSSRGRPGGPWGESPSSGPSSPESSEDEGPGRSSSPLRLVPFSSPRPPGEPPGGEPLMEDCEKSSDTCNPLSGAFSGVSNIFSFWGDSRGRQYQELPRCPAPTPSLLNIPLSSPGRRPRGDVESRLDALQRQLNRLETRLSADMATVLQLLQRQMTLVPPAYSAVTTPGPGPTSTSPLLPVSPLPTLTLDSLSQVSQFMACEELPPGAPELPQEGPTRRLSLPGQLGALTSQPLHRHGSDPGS

[21] = Volume of distribution at steady state in rat; format: ADME, organism-based; details: in vivo, read-out: Vdss
[22] = molecular target: Sodium channel protein type 5 subunit alpha (Homo sapiens, UniProt Q14524); assay: Inhibition of human NaV1.5 by electrophysiology
[23] = molecular target: Voltage-dependent N-type calcium channel subunit alpha-1B (Homo sapiens, UniProt Q00975); assay: Inhibition of CaV2.2
[24] = as §1; format: ADME, cell-free; details: read-out: PPB (converted)
[25] = Inhibition of benzodiazepine receptor at 10 uM

Sodium channel protein type 10 subunit alpha (Mus musculus, UniProt Q6QIY3), sequence (Q6QIY3 whole entry): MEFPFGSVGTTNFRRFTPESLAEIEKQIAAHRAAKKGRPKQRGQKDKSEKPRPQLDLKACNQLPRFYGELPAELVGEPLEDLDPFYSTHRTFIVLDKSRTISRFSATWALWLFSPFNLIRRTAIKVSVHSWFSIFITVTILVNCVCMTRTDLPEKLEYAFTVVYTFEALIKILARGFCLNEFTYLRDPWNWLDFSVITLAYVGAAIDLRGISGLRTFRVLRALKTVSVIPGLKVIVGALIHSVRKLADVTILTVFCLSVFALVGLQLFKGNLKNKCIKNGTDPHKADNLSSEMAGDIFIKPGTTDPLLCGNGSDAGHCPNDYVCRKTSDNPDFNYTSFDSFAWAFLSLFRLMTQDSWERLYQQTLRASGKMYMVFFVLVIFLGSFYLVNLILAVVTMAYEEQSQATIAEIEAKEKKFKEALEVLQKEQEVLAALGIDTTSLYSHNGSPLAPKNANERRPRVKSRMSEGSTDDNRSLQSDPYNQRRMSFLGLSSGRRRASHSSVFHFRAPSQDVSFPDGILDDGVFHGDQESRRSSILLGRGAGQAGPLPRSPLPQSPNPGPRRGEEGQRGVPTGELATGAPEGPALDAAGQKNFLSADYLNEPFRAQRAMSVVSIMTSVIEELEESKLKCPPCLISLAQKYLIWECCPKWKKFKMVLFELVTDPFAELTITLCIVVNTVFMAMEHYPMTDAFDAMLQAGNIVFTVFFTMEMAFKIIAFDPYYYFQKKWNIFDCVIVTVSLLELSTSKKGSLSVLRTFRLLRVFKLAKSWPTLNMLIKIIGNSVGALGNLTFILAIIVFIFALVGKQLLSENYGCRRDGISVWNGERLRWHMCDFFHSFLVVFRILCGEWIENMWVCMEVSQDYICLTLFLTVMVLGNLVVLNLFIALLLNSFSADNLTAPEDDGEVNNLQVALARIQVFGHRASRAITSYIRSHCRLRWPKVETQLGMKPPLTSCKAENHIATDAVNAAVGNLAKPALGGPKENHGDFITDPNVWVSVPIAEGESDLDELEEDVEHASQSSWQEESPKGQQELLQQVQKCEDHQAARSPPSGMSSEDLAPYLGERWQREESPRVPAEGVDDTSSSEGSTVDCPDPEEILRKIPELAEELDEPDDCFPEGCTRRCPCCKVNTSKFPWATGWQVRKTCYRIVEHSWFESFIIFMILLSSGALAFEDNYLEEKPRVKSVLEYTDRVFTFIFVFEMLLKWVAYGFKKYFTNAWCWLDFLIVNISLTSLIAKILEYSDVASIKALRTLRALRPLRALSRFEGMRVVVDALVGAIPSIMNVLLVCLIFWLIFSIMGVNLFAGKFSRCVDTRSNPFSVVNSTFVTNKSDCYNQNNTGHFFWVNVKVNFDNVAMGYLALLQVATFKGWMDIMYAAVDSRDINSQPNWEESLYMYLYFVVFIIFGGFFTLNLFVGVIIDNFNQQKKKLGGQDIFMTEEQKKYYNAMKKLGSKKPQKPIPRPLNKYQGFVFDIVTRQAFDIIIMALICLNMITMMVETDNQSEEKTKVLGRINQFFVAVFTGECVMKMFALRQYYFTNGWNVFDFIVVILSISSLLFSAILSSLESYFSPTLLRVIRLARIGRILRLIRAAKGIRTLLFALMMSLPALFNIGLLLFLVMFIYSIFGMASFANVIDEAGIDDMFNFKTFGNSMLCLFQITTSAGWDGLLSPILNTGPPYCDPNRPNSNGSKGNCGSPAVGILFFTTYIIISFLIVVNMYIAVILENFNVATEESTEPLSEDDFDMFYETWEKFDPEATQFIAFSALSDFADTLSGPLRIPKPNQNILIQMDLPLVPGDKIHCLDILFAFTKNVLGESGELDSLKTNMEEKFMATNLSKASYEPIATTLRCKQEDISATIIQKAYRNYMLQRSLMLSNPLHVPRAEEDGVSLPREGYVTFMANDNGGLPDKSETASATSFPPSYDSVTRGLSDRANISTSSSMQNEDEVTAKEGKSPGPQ

SMILES	IC50 [1] [nM]	Ratio IC50 (Homo sapiens [2])	Ratio IC50 (Homo sapiens [3])	IC50 [5] [nM]	IC50 [10] [nM]	IC50 [4] [nM]	further results
Cc1cc(C)cc(NC(=O)c2cnc(-c3ccc(OC(F)(F)F)cc3)o2)c1	340	> 30	> 30	280		950	
Cc1cc(C)cc(NC(=O)c2cncc(-c3ccc(OC(F)(F)F)cc3)n2)c1	57	> 30	> 30	21		34	
Cc1cc(C)cc(NC(=O)c2cccc(-c3ccc(OC(F)(F)F)cc3)n2)c1	1500	> 30	> 30	64		510	
COc1cc(NC(=O)c2ccc(-c3ccc(Cl)cc3)o2)cc(OC)c1		100				125	bioavailability [6]: 10%; solubility [7]: < 0.1 µg/mL
Cc1cc(C)cc(NC(=O)c2cncc(-c3ccc(Cl)cc3)c2)c1	610	> 30	> 30	9		87	
Cc1cc(C)cc(NC(=O)c2csc(-c3ccc(OC(F)(F)F)cc3)n2)c1	400	> 30	> 30	51		380	microsomal CLint [8]: > 300 µL/min/mg; microsomal CLint [9]: > 300 µL/min/mg
Cc1cc(C)cc(NC(=O)c2nsc(-c3ccc(OC(F)(F)F)cc3)n2)c1	280	> 30	> 30	8		520	microsomal CLint [8]: > 300 µL/min/mg; microsomal CLint [9]: > 300 µL/min/mg
Cc1cc(C)cc(NC(=O)c2ccc(-c3ccc(OC(F)(F)F)cc3)o2)c1	290	> 30	> 30	2		130	
CCOc1ncccc1CNC(=O)c1cncc(-c2ccc(Cl)cc2)c1	88			7	670	32	
Cc1cc(C)cc(NC(=O)c2ccnc(-c3ccc(OC(F)(F)F)cc3)c2)c1	11000	> 30	> 30	780			
Cc1cc(C)cc(NC(=O)c2cncc(-c3ccc(OC(F)(F)F)cc3)c2)c1	530	> 30	> 30	26		97	
Cc1cc(C)cc(NC(=O)c2cncc(-c3ccc(F)cc3)c2)c1	1900	> 30	> 30	100		210	
O=C(NCc1cccnc1OCC(F)(F)F)c1cncc(-c2ccc(Cl)cc2)c1	87			3	2800	28	IC50 [11]: > 10000 nM; inhibition [12]: > 70%; PPB (Plasma): 98.7%; ED50 (Rattus norvegicus [13]): 65 mg/kg; Cmax [14]: 350 ng/mL; clearance [15]: 10 mL/min/kg; Kp [16]: 1; microsomal CLint [9]: 68 µL/min/mg; IC50 [17]: > 10000 nM; IC50 [18]: > 10000 nM; Emax (Rattus norvegicus [19]): 66%; bioavailability [6]: 95%; IC50 [20]: 19000 nM; Vd [21]: 2 L/kg; IC50 [22]: 4700 nM; solubility [7]: 3.1 µg/mL (≈ 7.35 µM); IC50 [23]: > 10000 nM
Cc1cc(C)cc(NC(=O)c2coc(-c3ccc(OC(F)(F)F)cc3)n2)c1	1400	> 30	> 30	180		2000	
Cc1cc(C)cc(NC(=O)c2cncc(-c3ccc(C#N)cc3)c2)c1	190	> 30	> 30	23		91	IC50 [11]: > 10000 nM; fraction unbound [24]: 0.005; ED50 (Rattus norvegicus [13]): 72 mg/kg; Cmax [14]: 740 ng/mL; clearance [15]: 16.7 mL/min/kg; Kp [16]: 1.3; microsomal CLint [9]: 270 µL/min/mg; IC50 [17]: > 10000 nM; IC50 [18]: > 10000 nM; Emax (Rattus norvegicus [19]): 60%; bioavailability [6]: 17%; inhibition [25]: > 70%; IC50 [20]: 16000 nM; Vd [21]: 0.5 L/kg; IC50 [22]: > 30000 nM; solubility [7]: 1.4 µg/mL (≈ 4.28 µM); IC50 [23]: > 10000 nM
O=C(NCc1cccnc1N1CCOCC1)c1cncc(-c2ccc(Cl)cc2)c1	340			87	1600	98	solubility [7]: > 50 µg/mL
Cc1cc(C)cc(NC(=O)c2nc(-c3ccc(OC(F)(F)F)cc3)no2)c1	870	> 30	> 30	470		820	
O=C(NCc1cccnc1N1CCCCC1)c1cncc(-c2ccc(Cl)cc2)c1	26			14	70	8	

Continued, in another order:

IC50 [1] [nM]	Ratio IC50 (Homo sapiens [2])	Ratio IC50 (Homo sapiens [3])	IC50 [5] [nM]	IC50 [10] [nM]	SMILES	IC50 [4] [nM]	further results
7900					O=C(NCc1cccnc1)c1cncc(-c2ccc(Cl)cc2)c1		
2600					Cc1ncccc1CNC(=O)c1cncc(-c2ccc(Cl)cc2)c1		
81			4	1200	O=C(NCc1ccccc1Cl)c1cncc(-c2ccc(Cl)cc2)c1	66	
< 30			8	50	O=C(NCc1ccccc1N1CCCCC1)c1cncc(-c2ccc(Cl)cc2)c1	45	
680			140	18000	O=C(NCc1cccnc1Cl)c1cncc(-c2ccc(Cl)cc2)c1	560	
32			10	120	O=C(NCc1ccccc1N1CCOCC1)c1cncc(-c2ccc(Cl)cc2)c1	130	
620			22	1900	O=C(NCc1ccccc1)c1cncc(-c2ccc(Cl)cc2)c1	85	
< 30			2	110	Cc1ccccc1CNC(=O)c1cncc(-c2ccc(Cl)cc2)c1	9	
